Measured values from patent publication US20240384268A1, “Oligonucleotides” (Hudson Institute of Medical Research, priority 2021, published 2024).
In the oligonucleotide strings, read from the 5' end, every base follows the letter of its sugar. An asterisk marks phosphorothioate; unmarked linkages are phosphodiester. Other units and linkages are bracketed, terminal groups are in braces. A string of capitals states the bases alone. d = 2'-deoxy (DNA); m = 2'-O-methyl

Target: T1, human TLR9 (Homo sapiens, UniProt Q9NR96)
T1 construct: HA; host or cells: 293XL-hTLR9-HA (HEK293)
T1 sequence (Q9NR96 26-1032): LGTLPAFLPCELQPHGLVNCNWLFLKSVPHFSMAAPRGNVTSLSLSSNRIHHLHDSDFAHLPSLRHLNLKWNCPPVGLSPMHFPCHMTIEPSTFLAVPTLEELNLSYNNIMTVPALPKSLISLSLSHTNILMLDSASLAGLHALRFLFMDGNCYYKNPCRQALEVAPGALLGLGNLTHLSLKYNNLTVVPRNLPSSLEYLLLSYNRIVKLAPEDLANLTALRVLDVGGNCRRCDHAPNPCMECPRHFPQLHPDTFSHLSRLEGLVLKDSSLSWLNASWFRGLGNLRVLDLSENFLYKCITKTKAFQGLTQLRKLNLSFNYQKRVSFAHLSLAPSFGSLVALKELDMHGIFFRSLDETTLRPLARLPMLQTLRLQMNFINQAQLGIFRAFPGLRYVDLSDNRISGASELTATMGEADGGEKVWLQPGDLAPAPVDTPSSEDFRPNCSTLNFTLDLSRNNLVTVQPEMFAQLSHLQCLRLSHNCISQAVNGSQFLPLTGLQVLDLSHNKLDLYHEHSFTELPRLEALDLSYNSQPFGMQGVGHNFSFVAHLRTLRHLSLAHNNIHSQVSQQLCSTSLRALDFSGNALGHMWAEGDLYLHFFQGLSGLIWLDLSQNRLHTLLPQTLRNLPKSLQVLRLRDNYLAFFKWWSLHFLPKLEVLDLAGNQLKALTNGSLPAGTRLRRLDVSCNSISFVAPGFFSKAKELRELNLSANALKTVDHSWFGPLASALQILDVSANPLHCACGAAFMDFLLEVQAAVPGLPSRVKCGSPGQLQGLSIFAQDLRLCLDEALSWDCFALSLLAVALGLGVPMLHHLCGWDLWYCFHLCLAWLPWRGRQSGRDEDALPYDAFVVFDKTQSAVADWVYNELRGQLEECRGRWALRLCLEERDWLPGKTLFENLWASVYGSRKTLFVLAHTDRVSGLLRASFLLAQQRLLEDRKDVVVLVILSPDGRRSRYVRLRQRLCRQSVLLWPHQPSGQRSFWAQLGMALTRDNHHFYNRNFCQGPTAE
Test: HEK-TLR9 NF-κB-luciferase reporter, ODN2006 stimulation
Type: cell-based
Settings: HEK-TLR9; 500 nM ASO 45 min, then 200 nM ODN2006 overnight; percentage of ODN2006 only

Substance	TLR9-500 nM: averaged NF-κB-Luciferase relative to ODN2006
mG*mU*mC*mC*mC*A*T*C*C*C*T*T*C*T*G*mC*mU*mG*mC*mC (GUCCCATCCCTTCTGCUGCC; antisense; sugars from the 5' end m5 d10 m5, all phosphorothioate, methylation of C not given here) [[LINC-PINT]102]	101.22%
mA*mG*mG*mA*mU*T*A*A*A*A*C*A*G*A*T*mU*mA*mA*mU*mA (mA*mG*mG*mA*mU*dT*dA*dA*dA*dA*dC*dA*dG*dA*dT*mU*mA*mA*mU*mA) [[CDKN2B-AS1] 1775]	63.48%
mG*mU*mC*mA*mA*A*C*C*T*A*G*A*A*A*G*mA*mA*mG*mC*mA (mG*mU*mC*mA*mA*dA*dC*dC*dT*dA*dG*dA*dA*dA*dG*mA*mA*mG*mC*mA; antisense) [[CDKN2B-AS1]1528]	68.13%
mC*mC*mU*mU*mC*T*G*C*T*G*C*C*A*A*G*mC*mC*mC*mC*mA (mC*mC*mU*mU*mC*dT*dG*dC*dT*dG*dC*dC*dA*dA*dG*mC*mC*mC*mC*mA; antisense) [[LINC-PINT]94]	96.69%
mG*mG*mU*mG*mG*C*C*A*C*A*G*G*C*A*A*mC*mG*mU*mC*mA (GGUGGCCACAGGCAACGUCA; antisense; sugars from the 5' end m5 d10 m5, all phosphorothioate, methylation of C not given here) [[CDKN2B-AS1]2196]	97.04%
mC*mA*mA*mG*mC*C*C*C*A*G*C*G*T*T*C*mC*mU*mC*mC*mG (mC*mA*mA*mG*mC*dC*dC*dC*dA*dG*dC*dG*dT*dT*dC*mC*mU*mC*mC*mG; antisense) [[LINC-PINT]83.1]	93.79%
mU*mG*mA*mU*mG*A*T*G*C*T*T*G*C*A*G*mG*mA*mG*mG*mC (mU*mG*mA*mU*mG*dA*dT*dG*dC*dT*dT*dG*dC*dA*dG*mG*mA*mG*mG*mC) [[LINC-PINT|283.1]	65.76%
mG*mC*mG*mU*mA*G*T*T*T*C*T*C*T*T*C*mC*mU*mC*mC*mC (GCGUAGTTTCTCTTCCUCCC; sugars from the 5' end m5 d10 m5, all phosphorothioate, methylation of C not given here) [[LINC-PINT]935 KL]	52.04%
mU*mC*mU*mC*mU*G*G*T*C*C*C*A*T*C*C*mC*mU*mU*mC*mU (UCUCUGGTCCCATCCCUUCU; antisense; sugars from the 5' end m5 d10 m5, all phosphorothioate, methylation of C not given here) [[LINC-PINT]108]	100.51%
mU*mU*mU*mG*mA*A*A*T*T*C*A*G*A*A*G*mA*mU*mU*mU*mG (mU*mU*mU*mG*mA*dA*dA*dT*dT*dC*dA*dG*dA*dA*dG*mA*mU*mU*mU*mG) [[LINC PINT|2690]	54.33%
mG*mA*mA*mA*mA*G*A*T*T*A*T*C*T*T*C*mU*mU*mU*mU*mA (GAAAAGATTATCTTCUUUUA; sugars from the 5' end m5 d10 m5, all phosphorothioate, methylation of C not given here) [[CDKN2B-AS1]2134]	61.11%
mA*mC*mC*mC*mU*T*C*T*C*T*C*T*G*G*T*mC*mC*mC*mA*mU (mA*mC*mC*mC*mU*dT*dC*dT*dC*dT*dC*dT*dG*dG*dT*mC*mC*mC*mA*mU; antisense) [[LINC-PINT]115]	32.00%
mG*mG*mU*mC*mC*C*A*T*C*C*C*T*T*C*T*mG*mC*mU*mG*mC (GGUCCCATCCCTTCTGCUGC; sugars from the 5' end m5 d10 m5, all phosphorothioate, methylation of C not given here) [[LINC-PINT]103]	88.75%
mG*mU*mU*mC*mA*G*T*C*A*G*A*T*C*G*C*mU*mG*mG*mG*mA (mG*mU*mU*mC*mA*dG*dT*dC*dA*dG*dA*dT*dC*dG*dC*mU*mG*mG*mG*mA) [[LINC-PINT]412 KL]	77.50%
mG*mG*mG*mU*mC*T*C*C*T*C*C*A*C*A*C*mC*mC*mU*mU*mC (GGGUCTCCTCCACACCCUUC; antisense; sugars from the 5' end m5 d10 m5, all phosphorothioate, methylation of C not given here) [[LINC-PINT]128]	94.51%
mC*mU*mC*mU*mC*T*G*G*T*C*C*C*A*T*C*mC*mC*mU*mU*mC (mC*mU*mC*mU*mC*dT*dG*dG*dT*dC*dC*dC*dA*dT*dC*mC*mC*mU*mU*mC; antisense) [[LINC-PINT]109]	89.85%
mC*mA*mC*mC*mC*T*T*C*T*C*T*C*T*G*G*mU*mC*mC*mC*mA (CACCCTTCTCTCTGGUCCCA; antisense; sugars from the 5' end m5 d10 m5, all phosphorothioate, methylation of C not given here) [[LINC-PINT]116]	102.85%
mA*mU*mA*mU*mC*T*G*C*T*G*C*C*C*A*C*mC*mU*mU*mC*mU (AUAUCTGCTGCCCACCUUCU; antisense; sugars from the 5' end m5 d10 m5, all phosphorothioate, methylation of C not given here) [[CDKN2B-AS1]831]	73.46%
mC*mU*mU*mC*mU*C*T*C*T*G*G*T*C*C*C*mA*mU*mC*mC*mC (mC*mU*mU*mC*mU*dC*dT*dC*dT*dG*dG*dT*dC*dC*dC*mA*mU*mC*mC*mC) [[LINC-PINT]112]	64.35%
mA*mA*mG*mA*mU*T*A*T*C*T*T*C*T*T*T*mU*mA*mA*mU*mU (mA*mA*mG*mA*mU*dT*dA*dT*dC*dT*dT*dC*dT*dT*dT*mU*mA*mA*mU*mU) [[CDKN2B-AS1]2131]	59.77%
mU*mU*mC*mU*mC*T*C*T*G*G*T*C*C*C*A*mU*mC*mC*mC*mU (mU*mU*mC*mU*mC*dT*dC*dT*dG*dG*dT*dC*dC*dC*dA*mU*mC*mC*mC*mU; antisense) [[LINC-PINT]111]	98.01%
mG*mG*mU*mC*mU*C*C*T*C*C*A*C*A*C*C*mC*mU*mU*mC*mU (mG*mG*mU*mC*mU*dC*dC*dT*dC*dC*dA*dC*dA*dC*dC*mC*mU*mU*mC*mU; antisense) [[LINC-PINT]127]	77.91%
mC*mC*mC*mU*mU*C*T*C*T*C*T*G*G*T*C*mC*mC*mA*mU*mC (mC*mC*mC*mU*mU*dC*dT*dC*dT*dC*dT*dG*dG*dT*dC*mC*mC*mA*mU*mC; antisense) [[LINC-PINT]114]	62.09%
mC*mC*mU*mA*mG*A*A*A*G*A*A*G*C*A*A*mA*mG*mA*mU*mU (mC*mC*mU*mA*mG*dA*dA*dA*dG*dA*dA*dG*dC*dA*dA*mA*mG*mA*mU*mU) [[CDKN2B-AS1]1522]	42.44%
mA*mG*mG*mC*mC*T*C*C*A*G*T*G*T*C*T*mU*mC*mU*mC*mC (mA*mG*mG*mC*mC*dT*dC*dC*dA*dG*dT*dG*dT*dC*dT*mU*mC*mU*mC*mC; antisense) [[CDKN2B-AS1]2218]	81.24%

Same assay, conditions: MOE-modified ASO at 100 nM; averaged NF-κB-Luciferase relative to ODN2006 condition

Substance	TLR9 100 nM
GTCCAAGATCAGCAGTCTCA (antisense; 2'-MOE modified, pattern not given here) [CTNN2B-2341 MOE]	0.430

Same assay, conditions: MOE-modified ASO at 500 nM; averaged NF-κB-Luciferase relative to ODN2006 condition

Substance	TLR9 500 nM
GTCCAAGATCAGCAGTCTCA (antisense; 2'-MOE modified, pattern not given here) [CTNN2B-2341 MOE]	0.535
